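Growth conditions: 96-well plates. Treatment: test compound, 48 hours, 5 concentrations. Analysis: linear interpolation between bracketing concentrations; unreached endpoints set to highest concentration. TGI: concentration producing complete growth inhibition.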

Test systems include DLD-1 colon; DMS 273 small cell lung; HOP-18 NSCLC; HOP-62 NSCLC; KM20L2 colon; LXFL 529 NSCLC; M14 melanoma; M19-MEL melanoma; SF-295 CNS; SN12C renal; SNB-78 CNS; SW-620 colon; TK-10 renal; DMS 114 small cell lung; XF 498 CNS; T-47D breast.
Holding throughout (experiment): growth of human tumour cells (NCI), 48 h

Turning to `O=C(O)CN1CCSc2ccccc2CN(CC(=O)O)CCSc2ccccc2C1`, the TGI in the test on DLD-1 colon, with DMS 273 small cell lung, with HOP-18 NSCLC, with HOP-62 NSCLC, with KM20L2 colon and in the test with LXFL 529 NSCLC was greater than 100 µM in each case. The TGI with M14 melanoma, with M19-MEL melanoma, with SF-295 CNS, in the test with SN12C renal, in the test on SNB-78 CNS and in the test on SW-620 colon was greater than 100 µM each time. The TGI in the test on TK-10 renal is greater than 100 µM.

With `CC(=O)OCC1OC(N2C(=O)[C@@H](Oc3ccccc3)[C@H]2/C=C/c2ccccc2)C(OC(C)=O)C(OC(C)=O)C1OC(C)=O` (stereo partly drawn), the TGI in the test with DLD-1 colon, with DMS 114 small cell lung, in the test on DMS 273 small cell lung, with HOP-62 NSCLC, in the test on KM20L2 colon and in the test with LXFL 529 NSCLC was greater than 100 µM in each case. Further, the TGI in the test on M14 melanoma, in the test with M19-MEL melanoma, in the test with SF-295 CNS, in the test on SN12C renal, in the test on SNB-78 CNS and in the test with SW-620 colon was greater than 100 µM each time. Moreover, the TGI in the test on TK-10 renal and with XF 498 CNS was greater than 100 µM throughout.

For the compound `O=C(Cc1ccccc1)NN1C(=O)C(Cl)C1c1ccc(Cl)cc1` (stereo not drawn), the TGI with DLD-1 colon, in the test with DMS 114 small cell lung, in the test with DMS 273 small cell lung, in the test on HOP-18 NSCLC, with HOP-62 NSCLC and with KM20L2 colon was greater than 100 µM each time. Further, the TGI in the test on LXFL 529 NSCLC, in the test on M14 melanoma, with SF-295 CNS, in the test with SN12C renal, in the test with SNB-78 CNS and with SW-620 colon was greater than 100 µM each time. Also, the TGI with TK-10 renal and in the test on XF 498 CNS was greater than 100 µM each time.

`CCN(CC)C(=O)CCn1ccc(=O)[nH]c1=O`: the TGI in the test with DMS 114 small cell lung, in the test with DMS 273 small cell lung, in the test on HOP-62 NSCLC, in the test on KM20L2 colon, in the test with LXFL 529 NSCLC and in the test with M14 melanoma was greater than 100 µM throughout. Also, the TGI in the test with M19-MEL melanoma, with SF-295 CNS, in the test with SN12C renal, in the test with SNB-78 CNS, with SW-620 colon and with TK-10 renal was greater than 100 µM in each case. The same compound had a TGI in the test with XF 498 CNS greater than 100 µM.

As for `O=C1C2C3C4C1C1C2[C@H](OCc2ccccc2)C3C1[C@H]4OCc1ccccc1` (stereo partly drawn), the TGI with HOP-62 NSCLC, in the test with M14 melanoma, in the test with SF-295 CNS, with SN12C renal, in the test with SW-620 colon and in the test with T-47D breast was greater than 100 µM throughout. In the test on TK-10 renal, this compound showed a TGI greater than 100 µM.

Turning to `COc1cc2nc(-c3cccs3)nc(Nc3cccc([N+](=O)[O-])c3)c2cc1OC`, the TGI with HOP-62 NSCLC was found to be 36.1 µM; with M14 melanoma, 33.5 µM; in the test on SF-295 CNS it was 42.4 µM; in the test on SN12C renal, 33.2 µM; with SW-620 colon, 50.7 µM; in the test with T-47D breast it was 38.6 µM. Besides, in the test with TK-10 renal, the TGI was 37 µM.
